Reference: article PMC8286840, “Identifying SARS-CoV-2 antiviral compounds by screening for small molecule inhibitors of Nsp3 papain-like protease” (Biochemical Journal, 2021)
Counter-ions that a name gives are not always drawn. Like-named read-outs stand apart in the source and are kept apart here. Where a SMILES comes first, the peptide text is derived from it. [ ]: non-standard residue; d: D form. The star is where a group is joined. Hexanoyl = CCCCCC(=O)*; Ahx = NCCCCCC(=O)O

Tests used:
[1] = target: T1, SARS-CoV-2 PLpro (nsp3 1564–1878) (Severe acute respiratory syndrome coronavirus 2, UniProt P0DTD1); experiment: biochemical; parameters: FRET-quenched peptide (Pro3) cleavage by PLpro, 10 min pre-incubation, slope over 20 min, normalised to no-compound control; settings: high concentration screen
[2] = target: T1, SARS-CoV-2 PLpro (nsp3 1564–1878); experiment: biochemical; parameters: FRET-quenched peptide (Pro3) cleavage by PLpro, 10 min pre-incubation, slope over 20 min, normalised to no-compound control; settings: low concentration screen
[3] = Well no.=5357, read-out: % of control remaining
[4] = read-out: % of control remaining, Well no.=1861
[5] = read-out: % of control remaining, Well no.=6467
[6] = Well no.=6653, read-out: % of control remaining
[7] = Well no.=6367, read-out: % of control remaining
[8] = Well no.=5319, read-out: % of control remaining
[9] = Well no.=7181, read-out: % of control remaining
[10] = Well no.=5139, read-out: % of control remaining
[11] = Well no.=8295, read-out: % of control remaining
[12] = Well no.=447, read-out: % of control remaining
[13] = Well no.=1976, read-out: % of control remaining
[14] = Well no.=592, read-out: % of control remaining
[15] = Well no.=6497, read-out: % of control remaining
[16] = Well no.=7840, read-out: % of control remaining
[17] = Well no.=597, read-out: % of control remaining
[18] = Well no.=2369, read-out: % of control remaining
[19] = Well no.=394, read-out: % of control remaining
[20] = Well no.=1804, read-out: % of control remaining
[21] = Well no.=2096, read-out: % of control remaining
[22] = Well no.=5268, read-out: % of control remaining
[23] = Well no.=5309, read-out: % of control remaining
[24] = Well no.=5307, read-out: % of control remaining
[25] = Well no.=580, read-out: % of control remaining
[26] = Well no.=1978, read-out: % of control remaining
[27] = Well no.=5360, read-out: % of control remaining
[28] = Well no.=3547, read-out: % of control remaining
[29] = Well no.=1868, read-out: % of control remaining
[30] = Well no.=5145, read-out: % of control remaining
[31] = Well no.=532, read-out: % of control remaining
[32] = Well no.=1984, read-out: % of control remaining
[33] = Well no.=3463, read-out: % of control remaining
[34] = Well no.=8646, read-out: % of control remaining
[35] = Well no.=4317, read-out: % of control remaining
[36] = Well no.=690, read-out: % of control remaining
[37] = Well no.=3231, read-out: % of control remaining
[38] = Well no.=404, read-out: % of control remaining

Compound: CC(=O)OCC(=O)[C@@]1(O)[C@H](C)C[C@H]2[C@@H]3CCC4=CC(=O)C=C[C@]4(C)[C@@]3(F)[C@@H](O)C[C@@]21C [Dexamethasone acetate]
- remaining activity at 3.75 µM [1, 3]: 98%
- remaining activity at 1.25 µM [2, 3]: 99.3%

Compound: C[C@@H]1C[C@H]2[C@@H]3CCC4=CC(=O)C=C[C@]4(C)[C@@]3(F)[C@@H](O)C[C@]2(C)[C@@]1(O)C(=O)CO [Dexamethasone]
- remaining activity at 3.75 µM [1, 4]: 100%
- remaining activity at 3.75 µM [1, 5]: 98.7%
- remaining activity at 1.25 µM [2, 4]: 99.1%
- remaining activity at 1.25 µM [2, 5]: 96.6%

Compound: CN(C)CC[C@@H](c1ccc(Cl)cc1)c1ccccn1 [Dexchlorpheniramine (maleate)]
- remaining activity at 3.75 µM [1, 6]: 101%
- remaining activity at 1.25 µM [2, 6]: 103%

Compound: Cc1cccc([C@H](C)c2c[nH]cn2)c1C [Dexmedetomidine (hydrochloride)]
- remaining activity at 3.75 µM [1, 7]: 103%
- remaining activity at 1.25 µM [2, 7]: 102%

Compound: Cc1cccc([C@H](C)c2c[nH]cn2)c1C [Dexmedetomidine]
- remaining activity at 3.75 µM [1, 8]: 95.8%
- remaining activity at 1.25 µM [2, 8]: 94.4%

Compound: CCCN[C@@H]1CCc2nc(N)sc2C1 [Dexpramipexole (dihydrochloride)]
- remaining activity at 3.75 µM [1, 9]: 93.6%
- remaining activity at 1.25 µM [2, 9]: 98.2%

Compound: C[C@@H](CN1CC(=O)NC(=O)C1)N1CC(=O)NC(=O)C1 [Dexrazoxane HCl]
- remaining activity at 3.75 µM [1, 10]: 104%
- remaining activity at 1.25 µM [2, 10]: 101%

Compound: COc1ccc2c(c1)[C@]13CCCC[C@@H]1[C@H](C2)N(C)CC3 [Dextromethorphan (hydrobromide hydrate)]
- remaining activity at 3.75 µM [1, 11]: 96.5%
- remaining activity at 1.25 µM [2, 11]: 101%

Compound: COc1ccc2c(c1)[C@]13CCCC[C@@H]1[C@H](C2)N(C)CC3 [Dextromethorphan hydrobromide monohydrate]
- remaining activity at 3.75 µM [1, 12]: 104%
- remaining activity at 1.25 µM [2, 12]: 100%

Compound: COc1ccc2c(c1)[C@]13CCCC[C@@H]1[C@H](C2)N(C)CC3 [Dextromethorphan]
- remaining activity at 3.75 µM [1, 13]: 101%
- remaining activity at 1.25 µM [2, 13]: 98.8%

Compound: CN1CC[C@@]23CCCC[C@@H]2[C@@H]1Cc1ccc(O)cc13 [Dextrorphan D-tartrate]
- remaining activity at 3.75 µM [1, 14]: 103%
- remaining activity at 1.25 µM [2, 14]: 101%

Compound: OC[C@H]1OC(O)[C@H](O)[C@@H](O)[C@@H]1O (stereo partly drawn) [Dextrose]
- remaining activity at 3.75 µM [1, 15]: 99.3%
- remaining activity at 1.25 µM [2, 15]: 97.3%

Compound: CC(=O)N(C(C)=O)c1ccc(N=Nc2ccccc2C)cc1C [Diacetazotol]
- remaining activity at 3.75 µM [1, 16]: 97.2%
- remaining activity at 1.25 µM [2, 16]: 98.8%

Compound: O=c1c2ccccc2[nH]c(=S)n1CCN1CCC(=C(c2ccc(F)cc2)c2ccc(F)cc2)CC1 [Diacylglycerol Kinase Inhibitor II]
- remaining activity at 3.75 µM [1, 17]: 95.5%
- remaining activity at 3.75 µM [1, 18]: 99.1%
- remaining activity at 1.25 µM [2, 17]: 93.5%
- remaining activity at 1.25 µM [2, 18]: 98.2%

Compound: CC1=Nc2ccc(Cl)cc2S(=O)(=O)N1 [Diazoxide]
- remaining activity at 3.75 µM [1, 19]: 101%
- remaining activity at 3.75 µM [1, 20]: 93.4%
- remaining activity at 1.25 µM [2, 19]: 105%
- remaining activity at 1.25 µM [2, 20]: 92.9%

Compound: CN(C)CCN1C(=O)c2ccccc2N(C)c2ccccc21 [Dibenzepine]
- remaining activity at 3.75 µM [1, 21]: 99.6%
- remaining activity at 1.25 µM [2, 21]: 97%

Compound: N#CC(c1ccc(Cl)cc1)c1c(Cl)cc(-n2ncc(=O)[nH]c2=O)cc1Cl (stereo not drawn) [Diclazuril]
- remaining activity at 3.75 µM [1, 22]: 96.8%
- remaining activity at 1.25 µM [2, 22]: 91.9%

Compound: O=C(O)Cc1ccccc1Nc1c(Cl)cccc1Cl [Diclofenac Diethylamine]
- remaining activity at 3.75 µM [1, 23]: 98.6%
- remaining activity at 1.25 µM [2, 23]: 103%

Compound: O=C(O)Cc1ccccc1Nc1c(Cl)cccc1Cl [Diclofenac Potassium]
- remaining activity at 3.75 µM [1, 24]: 100%
- remaining activity at 1.25 µM [2, 24]: 101%

Compound: O=C(O)Cc1ccccc1Nc1c(Cl)cccc1Cl [Diclofenac sodium]
- remaining activity at 3.75 µM [1, 25]: 96.6%
- remaining activity at 1.25 µM [2, 25]: 94%

Compound: O=C(O)Cc1ccccc1Nc1c(Cl)cccc1Cl [Diclofenac]
- remaining activity at 3.75 µM [1, 26]: 102%
- remaining activity at 1.25 µM [2, 26]: 102%

Compound: Cc1onc(-c2c(Cl)cccc2Cl)c1C(=O)N[C@@H]1C(=O)N2[C@@H]1SC(C)(C)[C@@H]2C(=O)O [Dicloxacillin Sodium]
- remaining activity at 3.75 µM [1, 27]: 89.6%
- remaining activity at 1.25 µM [2, 27]: 90.3%

Compound: O=c1oc2ccccc2c(O)c1Cc1c(O)c2ccccc2oc1=O [Dicoumarol]
- remaining activity at 3.75 µM [1, 28]: 105%
- remaining activity at 1.25 µM [2, 28]: 104%

Compound: O=c1[nH]cnc2c1ncn2[C@H]1CC[C@@H](CO)O1 [Didanosine]
- remaining activity at 3.75 µM [1, 29]: 104%
- remaining activity at 1.25 µM [2, 29]: 97.7%

Compound: C[C@]12CCC3=C4CCC(=O)C=C4CC[C@H]3[C@@H]1CC[C@@]2(O)CC#N [Dienogest]
- remaining activity at 3.75 µM [1, 30]: 102%
- remaining activity at 1.25 µM [2, 30]: 102%

Compound: O=C(O)CN(CCN(CC(=O)O)CC(=O)O)CCN(CC(=O)O)CC(=O)O [Diethylenetriaminepentaacetic acid]
- remaining activity at 3.75 µM [1, 31]: 97.9%
- remaining activity at 1.25 µM [2, 31]: 100%

Compound: O=C(O)c1cc(-c2ccc(F)cc2F)ccc1O [Diflunisal]
- remaining activity at 3.75 µM [1, 32]: 102%
- remaining activity at 1.25 µM [2, 32]: 102%

Compound: C[C@H]1O[C@@H](O[C@H]2[C@@H](O)C[C@H](O[C@H]3[C@@H](O)C[C@H](O[C@H]4CC[C@@]5(C)[C@H](CC[C@@H]6[C@@H]5CC[C@]5(C)[C@@H](C7=CC(=O)OC7)CC[C@]65O)C4)O[C@@H]3C)O[C@@H]2C)C[C@H](O)[C@@H]1O [Digitoxin]
- remaining activity at 3.75 µM [1, 33]: 105%
- remaining activity at 1.25 µM [2, 33]: 104%

Compound: CCCCCC(=O)N[C@@H](Cc1ccc(O)cc1)C(=O)N[C@H](C(=O)NCCCCCC(N)=O)[C@@H](C)CC [Dihexa] (Hexanoyl-Tyr-Ile-[Ahx]-NH2)
- remaining activity at 3.75 µM [1, 34]: 98.4%
- remaining activity at 1.25 µM [2, 34]: 98.6%

Compound: CCCCC/C=C\C/C=C\C/C=C\CCCCCCC(=O)O [Dihomo-γ-linolenic acid]
- remaining activity at 3.75 µM [1, 35]: 99.1%
- remaining activity at 1.25 µM [2, 35]: 99%

Compound: CO[C@H]1CC=C2CCN3CCC4=C(CC(=O)OC4)[C@]23C1 [Dihydro-beta-erythroidine hydrobromide]
- remaining activity at 3.75 µM [1, 36]: 88.6%
- remaining activity at 1.25 µM [2, 36]: 88.8%

Compound: CC(C)[C@@]1(NC(=O)[C@@H]2C[C@@H]3c4cccc5[nH]cc(c45)C[C@H]3N(C)C2)O[C@@]2(O)[C@@H]3CCCN3C(=O)[C@H](Cc3ccccc3)N2C1=O [Dihydroergocristine mesylate]
- remaining activity at 3.75 µM [1, 37]: 105%
- remaining activity at 1.25 µM [2, 37]: 108%

Compound: CC(C)[C@@]1(NC(=O)[C@@H]2C[C@@H]3c4cccc5[nH]cc(c45)C[C@H]3N(C)C2)O[C@@]2(O)[C@@H]3CCCN3C(=O)[C@H](Cc3ccccc3)N2C1=O [Dihydroergocristine methanesulfonate]
- remaining activity at 3.75 µM [1, 38]: 101%
- remaining activity at 1.25 µM [2, 38]: 102%
